Measurements published in US20090196912A1, “Pyridinylamines” (GPC Botech AG, priority 2004, published 2009).

Legend:
Test in all cases: Generic kinase assay (33P-ATP, Myelin Basic Protein)
Type in all cases: biochemical
Abl = Abl (Homo sapiens, UniProt P00519); settings: 1 h; class symbol: % inhibition at 10 μM or IC50; read-out: Inhibitory effect on target Abl
Protocol: (§1) In order to determine the inhibitory effect of the compounds of the subject invention on various target enzymes a generic kinase assay was established.
(§2) Reactions were performed in 96-Well U-bottom microtiter plates (Greiner Bio-One; Frickenhausen/Germany, Cat. No. 650161), hereinafter designated “Assay Plates”. 10 μl of a solution comprising 40 μM Myelin Basic Protein (Invitrogen; Carlsbad, Calif./USA; Cat. No. 13228-010) and 4 μM ATP in three-fold concentrated Reaction Buffer (60 mM Tris-HCl, pH 7.5; 30 mM MgCl2; 3 mM dithiothreitol) were added into each well of the Assay Plate. 10 μl of serial dilutions of the compounds of the subject invention, dissolved in 4% DMSO, were then added into each well, except for Positive Control. Wells (C+ wells) and Negative Control Wells (C− wells). 10 μl of 4% DMSO without compounds were added to C+ and C− wells. 10 μl of a 500 mM solution of EDTA in water was then added to C− wells. Then 10 μl of a solution containing 50 μCi/ml Adenosine 5′-[γ-^33P]triphosphate in water was added to each well. To start the reaction 10 μl of the kinase to be assayed was added to each well. The optimal amount of kinase in the assay was determined to be the amount which yields to a turn-over of about 10% of ATP. Assay Plates were incubated for one hour at room temperature. Then 10 μl of a 500 mM solution of EDTA in water was added to each well except C− wells. Samples were now ready for measurement.
(§3) Measurements were preformed in 96-Well MAPH-Filter Plates (Millipore; Billerica, Mass./United States; Cat. No. MAPHNOB50), hereinafter designated “Measurement Plates”. Measurement Plates were washed with 200 μl of a 0.75% H3PO4 solution per well. The H3PO4 solution was exhausted using a Millipore vacuum station. 60 μl of a 0.75% H3PO4 solution was then added into each well, followed by the transfer of 30 μl of each well from the Assay Plate into the corresponding wells of the Measurement Plate. The Measurement Plate was incubated for 30 minutes at room temperature. Thereafter each well was washed three times with 200 μl of a 0.75% H3PO4 solution using a Millipore vacuum station. 20 μl of scintillation liquid (Supermix Liquid Szintillator; Perkin Elmer, Wellesley. Mass./United States; Cat. No. 1200-439) was then added to each well of the Measurement Plate. The plate was sealed and stored for 30 minutes in the darkness before radioactivity was quantified in a MicroBeta Scintillation Counter (Perkin Elmer, Wellesley. Mass./United States).

CDK1/CyclinB = CDK1/CyclinB (Homo sapiens, UniProt P06493); settings: class symbol: % inhibition at 10 μM or IC50
Protocol: as §1, §2, §3

EGFR = EGFR (Homo sapiens, UniProt P00533); settings: class symbol: % inhibition at 10 μM or IC50
Protocol: as §1, §2, §3

PDGFR = settings: class symbol: % inhibition at 10 μM or IC50
Protocol: as §1, §2, §3

RICK = RICK (Homo sapiens, UniProt O43353); settings: class symbol: % inhibition at 10 μM or IC50; for inhibition at 10 µM: 1 h, read-out: Inhibitory effect on target RICK
Protocol: as §1, §2, §3

c-Src = c-Src (Homo sapiens, UniProt P12931); settings: class symbol: % inhibition at 10 μM or IC50
Protocol: as §1, §2, §3

c-kit = c-kit (Homo sapiens, UniProt P10721); settings: 1 h; class symbol: % inhibition at 10 μM or IC50; read-out: Inhibitory effect on target c-kit
Protocol: as §1, §2, §3

cRaf = cRaf (Homo sapiens, UniProt P04049); settings: 1 h; class symbol: % inhibition at 10 μM or IC50; read-out: Inhibitory effect on target cRaf
Protocol: as §1, §2, §3

p56Lck = p56Lck (Homo sapiens, UniProt P06239); settings: 1 h; class symbol: % inhibition at 10 μM or IC50; read-out: Inhibitory effect on target p56Lck
Protocol: as §1, §2, §3

ROCK 2 = ROCK 2 (Homo sapiens, UniProt O75116); settings: class symbol: % inhibition at 10 μM or IC50; for inhibition at 10 µM: 1 h, read-out: Inhibitory effect on target ROCK 2
Protocol: as §1, §2, §3

CDK2/CyclinA = CDK2/CyclinA (Homo sapiens, UniProt P24941); settings: class symbol: % inhibition at 10 μM or IC50
Protocol: as §1, §2, §3

CDK5/p35 = CDK5/p35 (Homo sapiens, UniProt Q00535); settings: class symbol: % inhibition at 10 μM or IC50
Protocol: as §1, §2, §3

Chain of ROCK 2 (O75116 whole entry, species assumed): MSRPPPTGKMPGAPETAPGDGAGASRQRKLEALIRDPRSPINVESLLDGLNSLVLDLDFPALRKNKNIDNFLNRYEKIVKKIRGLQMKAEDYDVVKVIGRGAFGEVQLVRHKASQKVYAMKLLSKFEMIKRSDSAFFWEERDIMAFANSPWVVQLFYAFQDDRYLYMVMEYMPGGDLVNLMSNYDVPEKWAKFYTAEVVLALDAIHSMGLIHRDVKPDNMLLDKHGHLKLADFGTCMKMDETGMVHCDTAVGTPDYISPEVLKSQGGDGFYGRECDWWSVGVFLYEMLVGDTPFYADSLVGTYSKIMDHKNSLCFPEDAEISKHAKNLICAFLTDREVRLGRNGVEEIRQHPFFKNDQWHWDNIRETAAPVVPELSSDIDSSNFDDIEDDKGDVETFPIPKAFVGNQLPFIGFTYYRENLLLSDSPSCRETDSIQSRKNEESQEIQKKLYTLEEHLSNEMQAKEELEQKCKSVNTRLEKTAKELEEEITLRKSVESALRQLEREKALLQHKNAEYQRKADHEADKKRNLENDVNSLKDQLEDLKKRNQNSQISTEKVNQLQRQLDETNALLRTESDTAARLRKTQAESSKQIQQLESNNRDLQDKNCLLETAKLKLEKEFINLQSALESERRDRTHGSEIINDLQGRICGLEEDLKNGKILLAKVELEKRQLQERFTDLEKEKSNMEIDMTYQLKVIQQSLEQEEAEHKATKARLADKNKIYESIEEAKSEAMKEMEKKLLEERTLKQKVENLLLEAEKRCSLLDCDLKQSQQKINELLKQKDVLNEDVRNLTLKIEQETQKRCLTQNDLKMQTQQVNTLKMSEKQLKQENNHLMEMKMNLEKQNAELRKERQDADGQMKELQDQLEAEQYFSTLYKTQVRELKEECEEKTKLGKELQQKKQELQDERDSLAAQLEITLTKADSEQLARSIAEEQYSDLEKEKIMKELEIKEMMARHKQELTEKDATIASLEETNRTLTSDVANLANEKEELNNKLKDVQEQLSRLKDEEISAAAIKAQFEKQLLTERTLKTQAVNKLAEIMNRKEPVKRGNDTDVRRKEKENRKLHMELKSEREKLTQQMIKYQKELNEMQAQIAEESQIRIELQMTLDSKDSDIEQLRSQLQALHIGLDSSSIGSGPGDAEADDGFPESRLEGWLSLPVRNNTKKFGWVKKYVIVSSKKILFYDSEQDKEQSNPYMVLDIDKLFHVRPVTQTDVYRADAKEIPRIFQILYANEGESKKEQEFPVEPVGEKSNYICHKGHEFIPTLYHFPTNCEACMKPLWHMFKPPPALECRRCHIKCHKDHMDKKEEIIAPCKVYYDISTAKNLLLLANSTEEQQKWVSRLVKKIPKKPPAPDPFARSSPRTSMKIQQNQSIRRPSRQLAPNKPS
Chain of c-kit (P10721 26-976): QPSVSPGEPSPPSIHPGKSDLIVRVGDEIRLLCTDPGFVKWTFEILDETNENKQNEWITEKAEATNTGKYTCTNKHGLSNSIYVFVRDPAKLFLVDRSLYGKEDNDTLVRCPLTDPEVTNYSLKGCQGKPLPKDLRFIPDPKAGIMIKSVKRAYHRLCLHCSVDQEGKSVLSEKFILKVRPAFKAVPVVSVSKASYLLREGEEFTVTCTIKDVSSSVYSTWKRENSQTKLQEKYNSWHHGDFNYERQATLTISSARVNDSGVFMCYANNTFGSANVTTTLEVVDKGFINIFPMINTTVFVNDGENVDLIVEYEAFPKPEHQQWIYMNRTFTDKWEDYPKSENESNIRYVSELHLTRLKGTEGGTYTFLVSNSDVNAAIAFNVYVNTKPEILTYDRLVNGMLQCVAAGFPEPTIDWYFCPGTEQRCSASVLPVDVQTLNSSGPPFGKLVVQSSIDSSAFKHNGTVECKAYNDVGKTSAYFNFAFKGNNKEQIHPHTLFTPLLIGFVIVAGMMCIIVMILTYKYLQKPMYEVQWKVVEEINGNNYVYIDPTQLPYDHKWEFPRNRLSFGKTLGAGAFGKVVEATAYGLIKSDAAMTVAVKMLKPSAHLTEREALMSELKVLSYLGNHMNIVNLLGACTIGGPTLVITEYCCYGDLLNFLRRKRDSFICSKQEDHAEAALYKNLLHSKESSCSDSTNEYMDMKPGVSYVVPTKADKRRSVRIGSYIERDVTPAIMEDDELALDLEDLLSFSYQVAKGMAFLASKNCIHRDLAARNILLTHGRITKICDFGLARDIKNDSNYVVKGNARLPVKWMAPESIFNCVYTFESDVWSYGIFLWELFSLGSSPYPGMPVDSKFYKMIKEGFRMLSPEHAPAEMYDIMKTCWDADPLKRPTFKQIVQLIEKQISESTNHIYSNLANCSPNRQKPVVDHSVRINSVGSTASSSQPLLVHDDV
Chain of CDK1/CyclinB (P06493 whole entry, species assumed): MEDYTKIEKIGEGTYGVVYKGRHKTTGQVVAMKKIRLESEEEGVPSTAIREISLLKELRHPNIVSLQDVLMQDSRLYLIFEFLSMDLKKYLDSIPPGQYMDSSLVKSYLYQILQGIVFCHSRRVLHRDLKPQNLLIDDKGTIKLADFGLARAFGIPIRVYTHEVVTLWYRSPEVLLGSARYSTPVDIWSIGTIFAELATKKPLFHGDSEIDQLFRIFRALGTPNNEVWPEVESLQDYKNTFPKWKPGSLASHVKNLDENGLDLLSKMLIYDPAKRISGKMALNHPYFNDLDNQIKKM
Chain of CDK1/CyclinB (P14635 whole entry partner, species assumed): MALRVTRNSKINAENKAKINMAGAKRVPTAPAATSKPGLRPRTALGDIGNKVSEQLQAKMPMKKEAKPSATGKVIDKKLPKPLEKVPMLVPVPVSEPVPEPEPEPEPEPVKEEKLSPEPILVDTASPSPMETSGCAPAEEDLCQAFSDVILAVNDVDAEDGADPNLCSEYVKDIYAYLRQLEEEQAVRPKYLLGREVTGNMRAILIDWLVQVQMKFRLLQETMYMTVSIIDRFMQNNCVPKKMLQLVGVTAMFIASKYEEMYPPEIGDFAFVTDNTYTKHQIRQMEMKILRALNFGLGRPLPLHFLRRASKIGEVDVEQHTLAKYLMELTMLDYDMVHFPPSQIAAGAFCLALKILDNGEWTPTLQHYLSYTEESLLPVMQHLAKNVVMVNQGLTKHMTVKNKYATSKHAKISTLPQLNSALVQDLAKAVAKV
Chain of EGFR (P00533 25-1210, species assumed): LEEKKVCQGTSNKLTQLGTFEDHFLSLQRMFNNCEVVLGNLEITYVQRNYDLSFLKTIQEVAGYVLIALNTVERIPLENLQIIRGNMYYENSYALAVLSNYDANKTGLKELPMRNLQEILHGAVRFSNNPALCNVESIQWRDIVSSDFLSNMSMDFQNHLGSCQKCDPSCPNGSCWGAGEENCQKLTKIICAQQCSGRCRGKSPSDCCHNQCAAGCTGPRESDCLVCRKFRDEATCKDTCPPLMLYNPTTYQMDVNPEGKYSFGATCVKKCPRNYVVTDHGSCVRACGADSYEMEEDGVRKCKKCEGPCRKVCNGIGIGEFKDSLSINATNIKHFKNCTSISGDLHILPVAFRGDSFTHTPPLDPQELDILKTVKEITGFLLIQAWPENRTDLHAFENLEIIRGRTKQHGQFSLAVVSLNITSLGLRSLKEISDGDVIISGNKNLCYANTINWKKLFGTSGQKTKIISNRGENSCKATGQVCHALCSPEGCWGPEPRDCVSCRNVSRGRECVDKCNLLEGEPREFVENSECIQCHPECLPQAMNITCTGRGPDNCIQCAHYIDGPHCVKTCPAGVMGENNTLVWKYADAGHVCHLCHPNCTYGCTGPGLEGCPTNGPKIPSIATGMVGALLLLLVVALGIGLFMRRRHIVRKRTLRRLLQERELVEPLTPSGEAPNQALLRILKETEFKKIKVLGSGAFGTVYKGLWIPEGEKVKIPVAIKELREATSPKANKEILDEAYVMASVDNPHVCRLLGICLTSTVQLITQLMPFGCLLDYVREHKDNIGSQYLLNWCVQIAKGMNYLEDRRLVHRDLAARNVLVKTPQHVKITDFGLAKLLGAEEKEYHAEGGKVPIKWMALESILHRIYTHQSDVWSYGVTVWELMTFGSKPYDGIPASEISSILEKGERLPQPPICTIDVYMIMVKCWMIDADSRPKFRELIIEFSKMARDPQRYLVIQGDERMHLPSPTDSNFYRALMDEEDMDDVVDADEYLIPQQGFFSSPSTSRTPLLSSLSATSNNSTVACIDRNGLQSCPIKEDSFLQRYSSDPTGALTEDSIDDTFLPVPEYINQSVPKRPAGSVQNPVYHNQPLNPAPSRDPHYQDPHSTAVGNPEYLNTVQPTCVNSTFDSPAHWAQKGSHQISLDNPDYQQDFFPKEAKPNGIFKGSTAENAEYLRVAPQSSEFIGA
Chain of cRaf (P04049 whole entry, species assumed): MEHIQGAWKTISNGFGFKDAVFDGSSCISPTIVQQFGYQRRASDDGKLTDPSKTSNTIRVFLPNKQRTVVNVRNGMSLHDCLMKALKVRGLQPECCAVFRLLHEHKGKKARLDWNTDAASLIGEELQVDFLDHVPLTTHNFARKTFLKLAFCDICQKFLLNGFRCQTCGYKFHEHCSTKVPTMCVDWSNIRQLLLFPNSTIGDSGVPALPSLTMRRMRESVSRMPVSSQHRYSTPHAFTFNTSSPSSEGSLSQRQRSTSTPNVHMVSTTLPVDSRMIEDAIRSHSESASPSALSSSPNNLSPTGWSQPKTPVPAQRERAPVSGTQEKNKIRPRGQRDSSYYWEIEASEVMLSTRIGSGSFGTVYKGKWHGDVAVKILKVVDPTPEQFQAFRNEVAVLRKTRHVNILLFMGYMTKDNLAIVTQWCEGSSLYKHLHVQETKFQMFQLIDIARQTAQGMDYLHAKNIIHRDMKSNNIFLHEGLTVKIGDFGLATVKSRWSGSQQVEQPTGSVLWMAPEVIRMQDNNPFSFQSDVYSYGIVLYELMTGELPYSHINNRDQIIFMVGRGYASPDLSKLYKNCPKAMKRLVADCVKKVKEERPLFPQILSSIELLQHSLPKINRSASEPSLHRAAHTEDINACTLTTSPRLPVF

inhibition at 10 µM (Abl)	Inhibitory effect on target RICK (RICK)	inhibition at 10 µM (c-kit)	inhibition at 10 µM (cRaf)	inhibition at 10 µM (p56Lck)	inhibition at 10 µM (ROCK 2)	inhibition at 10 µM (RICK)	Inhibitory effect on target ROCK 2 (ROCK 2)	SMILES	Inhibitory effect on target CDK1/CyclinB (CDK1/CyclinB)	Inhibitory effect on target EGFR (EGFR)	Inhibitory effect on target PDGFR (PDGFR)	Inhibitory effect on target c-Src (c-Src)	Inhibitory effect on target CDK2/CyclinA (CDK2/CyclinA)	Inhibitory effect on target CDK5/p35 (CDK5/p35)
50 to 90%	C (C: IC50 measured: <1 μM)	> 90%	50 to 90%	50 to 90%				COc1cccc(-c2cncc(NCc3cccc(O)c3)c2)c1F [Compound 236, 3-{[5-(2-Fluoro-3-methoxy-phenyl)-pyridin-3-ylamino]-methyl}-phenol]	A (A: 50-90% inhibition at 10 μM enzyme concentration)	A (A: 50-90% inhibition at 10 μM enzyme concentration)	A (A: 50-90% inhibition at 10 μM enzyme concentration)	A (A: 50-90% inhibition at 10 μM enzyme concentration)		
	C (C: IC50 measured: <1 μM)	50 to 90%			50 to 90%			Cc1ccc(CNc2cncc(-c3cccc(O)c3)c2)cc1O [Compound 247, 5-{[5-(3-Hydroxy-phenyl)-pyridin-3-ylamino]-methyl}-2-methyl-phenol]		A (A: 50-90% inhibition at 10 μM enzyme concentration)	A (A: 50-90% inhibition at 10 μM enzyme concentration)			
50 to 90%	C (C: IC50 measured: <1 μM)	> 90%	50 to 90%	50 to 90%	50 to 90%			OCc1ccc(-c2cncc(NCc3cccc(O)c3)c2)cc1 [Compound 229, 3-{[5-(4-Hydroxymethyl-phenyl)-pyridin-3-ylamino]-methyl}-phenol]		A (A: 50-90% inhibition at 10 μM enzyme concentration)	A (A: 50-90% inhibition at 10 μM enzyme concentration)			
					50 to 90%	50 to 90%		Oc1ccc(-c2cncc(NCc3ccc4c(c3)OCO4)c2)cc1 [Compound 126, 4-{5-[(Benzo[1,3]dioxol-5-ylmethyl)-amino]-pyridin-3-yl}-phenol]						
50 to 90%	C (C: IC50 measured: <1 μM)	50 to 90%	50 to 90%	> 90%	50 to 90%			COC(=O)c1cccc(-c2cncc(NCc3cccc(O)c3)c2)c1 [Compound 243, 3-[5-(3-Hydroxy-benzylamino)-pyridin-3-yl]-benzoic acid methyl ester]					B (B: >90% inhibition at 10 μM enzyme concentration)	
50 to 90%	C (C: IC50 measured: <1 μM)	> 90%	50 to 90%	> 90%	50 to 90%			Oc1cccc(CNc2cncc(-c3cccc(O)c3)c2)c1 [Compound 225, 3-{5-[(3-Hydroxybenzyl)amino]pyridin-3-yl}phenol]		A (A: 50-90% inhibition at 10 μM enzyme concentration)	A (A: 50-90% inhibition at 10 μM enzyme concentration)			
	C (C: IC50 measured: <1 μM)							CC(=O)Nc1cccc(-c2cncc(Nc3ccc(F)cc3)c2)c1 [Compound 235, N-{3-[5-(4-Fluoro-phenylamino)-pyridin-3-yl]-phenyl}-acetamide]	A (A: 50-90% inhibition at 10 μM enzyme concentration)	A (A: 50-90% inhibition at 10 μM enzyme concentration)	A (A: 50-90% inhibition at 10 μM enzyme concentration)			
50 to 90%	C (C: IC50 measured: <1 μM)	50 to 90%	50 to 90%	50 to 90%				Oc1cccc(CNc2cncc(-c3cccc(O)c3F)c2)c1 [Compound 231, 2-Fluoro-3-[5-(3-hydroxy-benzylamino)-pyridin-3-yl]-phenol]	A (A: 50-90% inhibition at 10 μM enzyme concentration)	A (A: 50-90% inhibition at 10 μM enzyme concentration)	A (A: 50-90% inhibition at 10 μM enzyme concentration)	B (B: >90% inhibition at 10 μM enzyme concentration)		A (A: 50-90% inhibition at 10 μM enzyme concentration)
50 to 90%	C (C: IC50 measured: <1 μM)	> 90%	50 to 90%	50 to 90%				Oc1cccc(CNc2cncc(-c3ccccc3)c2)c1 [Compound 238, 3-[(5-Phenyl-pyridin-3-ylamino)-methyl]-phenol]		A (A: 50-90% inhibition at 10 μM enzyme concentration)	A (A: 50-90% inhibition at 10 μM enzyme concentration)			
	C (C: IC50 measured: <1 μM)			50 to 90%				COc1ccccc1Nc1cncc(-c2cccc(NC(C)=O)c2)c1 [Compound 240, N-{3-[5-(2-Methoxy-phenylamino)-pyridin-3-yl]-phenyl}-acetamide]	A (A: 50-90% inhibition at 10 μM enzyme concentration)		A (A: 50-90% inhibition at 10 μM enzyme concentration)			
					50 to 90%			Oc1cccc(CNc2cncc(Cc3cccc(O)c3)c2)c1 [Compound 272, (3-hydroxy-benzyl)-[5-(3-hydroxy-benzyl)-pyridin-3-yl]-amine]					B (B: >90% inhibition at 10 μM enzyme concentration)	A (A: 50-90% inhibition at 10 μM enzyme concentration)
> 90%	C (C: IC50 measured: <1 μM)	> 90%	50 to 90%	> 90%			C (C: IC50 measured: <1 μM)	NC(=O)c1cccc(-c2cncc(NCc3cccc(O)c3)c2)c1 [Compound 230, 3-[5-(3-Hydroxy-benzylamino)-pyridin-3-yl]-benzamide]		A (A: 50-90% inhibition at 10 μM enzyme concentration)				
> 90%	C (C: IC50 measured: <1 μM)	> 90%	50 to 90%	> 90%				Nc1cccc(-c2cncc(NCc3cccc(O)c3)c2)c1 [Compound 232, 3-{[5-(3-Amino-phenyl)-pyridin-3-ylamino]-methyl}-phenol]		A (A: 50-90% inhibition at 10 μM enzyme concentration)	A (A: 50-90% inhibition at 10 μM enzyme concentration)			
					50 to 90%	50 to 90%		Oc1ccc(-c2cncc(NCc3ccc(F)c(F)c3)c2)cc1 [Compound 127, 4-[5-(3,4-Difluoro-benzylamino)-pyridin-3-yl]-phenol]						
